We go through five compounds from patent US20260306642A1, “STAT DEGRADERS AND USES THEREOF” (Recludix Pharma, Inc., priority 2023, published 2026).

Read-outs that look alike come from different tables or passages of the source.

One experiment concerns the target pSTAT3 (Homo sapiens, UniProt P40763). Kind of experiment: MSD-pSTAT-PBMC Assay (pSTAT3, IL-6 stimulated). The experiment is classed as cell-based. An excerpt:
Cryopreserved Peripheral Blood Mononuclear Cells (PBMC) are from AllCells. Recombinant Human IL-4 and IL-6 are from Peprotech. Mouse monoclonal anti-STAT3 antibody, rabbit monoclonal anti-pY705-STAT3 antibody, rabbit monoclonal Anti-pY641-STAT6 antibody, and lysis buffer are from Cell Signaling Technology (CST). Mouse monoclonal anti-STAT6 antibody is from BioLegend. Assay plates, blocker, and anti-rabbit secondary antibody are from Meso Scale Discovery (MSD).
Cryopreserved PBMCs were thawed out and allowed to recover overnight in IMDM+10% heat-inactivated FBS prior to plating 50,000 (STAT3) or 25,000 (STAT6) cells per well in 96-well U-bottom tissue culture plates. Cells were treated with compound for 3 hrs, then stimulated with 10 ng/mL IL-6 (STAT3) or 1 ng/mL IL-4 (STAT6) for 10 min. Cells were then spun down and washed with ice-cold PBS prior to lysing the cell pellet with 1× lysis buffer (CST) with 1× HALT protease and phosphatase inhibitor cocktail (Thermo). Lysates were transferred to and incubated overnight at 4° C. with shaking in QuickPlex 96-well high bind assay plates (MSD) pre-coated overnight with 30 μL per well of […] mouse monoclonal anti-STAT3 antibody (STAT3) or 2 μg/mL mouse monoclonal anti-STAT6 antibody (STAT6) in 1× PBS, and pre-blocked for 1 hour with 3% Blocker-A (MSD). Captured protein in the assay plates were then washed and probed with 25 μL per well of […] rabbit monoclonal anti-pY705-STAT3 antibody (STAT3) or […] rabbit monoclonal Anti-pY641-STAT6 antibody (STAT6) in 1% Blocker-A for 1 hour at room temperature with shaking, then washed and probed with 25 ul per well of 1 ug/ml Sulfo-TAG Labeled Goat Anti-Rabbit Antibody (MSD) in 1% Blocker-A for 1 hour at room temperature with shaking. Assay plates were then washed and 150 μL of 1× Read Buffer-T (MSD) was added to each well prior to reading on an SQ120 MSD Plate Reader. Assay signal from each sample was subtracted by the signal from unstimulated control wells and normalized to DMSO control wells. IC50 values were calculated using Graph Pad Prism Dose-Response Nonlinear Regression with variable slope. For both pSTAT3 and pSTAT6 A=≤100 nM; B=>100-1000 nM; C=>1000-3000 nM; and D=>3 μM.

For another experiment, the target named is T1, STAT3 (Homo sapiens, UniProt P40763).
T1 construct: Recombinant STAT3 protein (STAT3(G127-I722))
Kind of experiment: STAT3 Fluorescence Polarization (FP) Assay. It counts as binding. As to the method:
An FP assay was developed to determine IC50 values for test substances.
Recombinant STAT3 protein (STAT3(G127-I722)) at 25 nM was combined with a fluorescently labeled, phosphotyrosine peptide probe (5-FAM-GpYLPQTV-NH2) at 2 nM in FP buffer (10 mM HEPES pH 7.4, 50 mM NaCl, 1 mM EDTA, 0.05% Tween 20, 2 mM DTT). 50 μL of STAT3-probe mixture was added to serial diluted compounds in black, 96-well plates (Greiner BioOne 655076) to a final concentration of 1% DMSO. Reaction components were mixed, and FP was measured after 45-minute incubation at room temperature using a Tecan Spark multimode plate reader. FP signal (mP) was plotted against the log concentration of the test substances and IC50 values were calculated by nonlinear regression analysis using GraphPad Prism software. For STAT3 FP assay, A=≤100 nM; B=>100-1000 nM; C=>1-10 μM; and D=>10 μM.
On the technique in general: Polarisation of emitted light reports the rotation of a fluorescent probe.

In another experiment the target is T2, STAT6 (Homo sapiens, UniProt P42226).
T2 construct: Recombinant STAT6 protein (STAT6(W123-T658))
T2 sequence (P42226 123-658): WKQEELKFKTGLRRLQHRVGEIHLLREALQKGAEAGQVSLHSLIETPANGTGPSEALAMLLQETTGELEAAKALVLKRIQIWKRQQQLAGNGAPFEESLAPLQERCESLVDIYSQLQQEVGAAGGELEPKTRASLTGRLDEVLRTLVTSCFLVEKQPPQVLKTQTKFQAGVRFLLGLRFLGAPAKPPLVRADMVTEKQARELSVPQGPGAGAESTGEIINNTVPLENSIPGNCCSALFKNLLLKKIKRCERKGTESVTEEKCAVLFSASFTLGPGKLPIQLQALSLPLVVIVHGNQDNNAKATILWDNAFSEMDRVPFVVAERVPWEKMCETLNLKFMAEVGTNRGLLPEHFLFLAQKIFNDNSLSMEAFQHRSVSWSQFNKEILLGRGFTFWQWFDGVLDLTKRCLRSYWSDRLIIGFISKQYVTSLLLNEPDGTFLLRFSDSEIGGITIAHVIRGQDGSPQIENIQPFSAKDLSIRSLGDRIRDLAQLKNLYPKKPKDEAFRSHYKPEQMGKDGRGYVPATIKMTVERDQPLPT
Kind of experiment: STAT6 Fluorescence Polarization (FP) Assay. It counts as binding. As to the method:
An FP assay was developed to determine IC50 values for test substances. Recombinant STAT6 protein (STAT6(W123-T658)) at 250 nM was combined with a fluorescently labeled, phosphotyrosine peptide probe (5-FAM-ApYKPFQDLI-NH2) at 2 nM in FP buffer (10 mM HEPES pH 7.4, 50 mM NaCl, 1 mM EDTA, 0.05% Tween 20, 2 mM DTT). 50 μL of STAT6-probe mixture was added to serial diluted compounds in black, 96-well plates (Greiner BioOne 655076) to a final concentration of 1% DMSO. Reaction components were mixed, and FP was measured after 45-minute incubation at room temperature using a Tecan Spark multimode plate reader. FP signal (mP) was plotted against the log concentration of the test substances and IC50 values were calculated by nonlinear regression analysis using GraphPad Prism software. For STAT6 FP assay, A=≤300 nM; B=>300-3000 nM; C=>3-30 μM; and D=>30 μM.

Where [1] appears, read: read-out: pSTAT3 IC50, compound 3 hrs, then 10 ng/mL IL-6 10 min, pY705-STAT3.
Where [2] appears, read: compound 3 hrs, then 10 ng/mL IL-6 10 min, pY705-STAT3, read-out: pSTAT3 IC50.

Sequence of pSTAT3 (P40763 whole entry): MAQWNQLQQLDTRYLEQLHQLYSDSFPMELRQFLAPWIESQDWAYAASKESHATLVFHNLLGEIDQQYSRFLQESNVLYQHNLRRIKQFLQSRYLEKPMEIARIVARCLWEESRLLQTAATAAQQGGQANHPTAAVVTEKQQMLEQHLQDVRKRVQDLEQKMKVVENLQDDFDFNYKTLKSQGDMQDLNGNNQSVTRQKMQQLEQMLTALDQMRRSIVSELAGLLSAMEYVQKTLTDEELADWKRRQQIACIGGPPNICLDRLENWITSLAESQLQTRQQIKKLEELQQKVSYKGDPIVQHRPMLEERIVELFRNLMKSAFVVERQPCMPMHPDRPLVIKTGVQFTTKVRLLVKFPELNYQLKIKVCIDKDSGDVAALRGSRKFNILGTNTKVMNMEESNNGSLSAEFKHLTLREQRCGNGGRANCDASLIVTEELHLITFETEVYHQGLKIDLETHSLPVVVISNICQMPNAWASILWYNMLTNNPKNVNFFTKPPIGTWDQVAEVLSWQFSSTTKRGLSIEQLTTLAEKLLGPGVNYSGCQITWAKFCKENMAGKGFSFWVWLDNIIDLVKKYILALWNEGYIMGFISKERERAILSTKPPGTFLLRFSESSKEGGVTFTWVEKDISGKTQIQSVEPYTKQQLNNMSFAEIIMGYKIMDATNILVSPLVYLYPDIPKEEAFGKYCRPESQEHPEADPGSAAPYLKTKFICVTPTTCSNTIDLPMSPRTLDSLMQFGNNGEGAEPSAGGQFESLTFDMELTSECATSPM
T1 sequence (P40763 127-722): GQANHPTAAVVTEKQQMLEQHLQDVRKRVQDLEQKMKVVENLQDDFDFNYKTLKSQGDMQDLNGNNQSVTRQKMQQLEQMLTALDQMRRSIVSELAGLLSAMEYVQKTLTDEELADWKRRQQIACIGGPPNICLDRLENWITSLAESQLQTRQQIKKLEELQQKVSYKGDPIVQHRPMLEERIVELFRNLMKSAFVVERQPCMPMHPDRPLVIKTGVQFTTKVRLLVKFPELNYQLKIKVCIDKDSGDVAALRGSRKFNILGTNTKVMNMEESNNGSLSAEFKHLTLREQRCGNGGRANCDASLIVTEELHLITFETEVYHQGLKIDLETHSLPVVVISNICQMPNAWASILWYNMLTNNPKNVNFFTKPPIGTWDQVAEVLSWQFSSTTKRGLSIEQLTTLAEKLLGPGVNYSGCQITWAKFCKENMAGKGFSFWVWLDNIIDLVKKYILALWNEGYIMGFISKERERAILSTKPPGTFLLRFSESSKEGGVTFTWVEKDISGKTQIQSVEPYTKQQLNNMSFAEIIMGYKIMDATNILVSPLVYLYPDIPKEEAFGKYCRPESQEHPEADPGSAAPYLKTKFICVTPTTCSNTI

On to `O=C(COc1cccc2c1C(=O)N(C1CCC(=O)NC1=O)C2=O)NCCOCCOCC(=O)NC1(c2ccccn2)CN(C(=O)[C@@H]2CC[C@H]3CCCC[C@H](NC(=O)c4cc5cc(C(F)(F)P(=O)(O)O)ccc5s4)C(=O)N32)C1` (stereo partly drawn) [Compound 32, ((2-(((3S,6S,10aR)-3-(3-(2-(2-(2-(2-((2-(2,6-dioxopiperidin-3-yl)-1,3-dioxoisoindolin-4-yl)oxy)acetamido)ethoxy)ethoxy)acetamido)-3-(pyridin-2-yl)azetidine-1-carbonyl)-5-oxodecahydropyrrolo[1,2-a]azocin-6-yl)carbamoyl)benzo[b]thiophen-5-yl)difluoromethyl)phosphonic acid], for which the IC50 was greater than 3000 nM at pSTAT3 (setting [1]), less than 100 nM against STAT3 and 3000 to 30000 nM on STAT6.

Regarding `Cc1ncsc1-c1ccc([C@H](C)NC(=O)[C@@H]2C[C@@H](O)CN2C(=O)[C@@H](NC(=O)COCCOCCC(=O)NC2(c3ccccn3)CN(C(=O)[C@@H]3CC[C@H]4CCCC[C@H](NC(=O)c5cc6cc(C(F)(F)P(=O)(O)O)ccc6s5)C(=O)N43)C2)C(C)(C)C)cc1` [Compound 33, (difluoro(2-(((3S,6S,10aR)-3-(3-(3-(2-(2-(((S)-1-((2S,4R)-4-hydroxy-2-(((S)-1-(4-(4-methylthiazol-5-yl)phenyl)ethyl)carbamoyl)pyrrolidin-1-yl)-3,3-dimethyl-1-oxobutan-2-yl)amino)-2-oxoethoxy)ethoxy)propanamido)-3-(pyridin-2-yl)azetidine-1-carbonyl)-5-oxodecahydropyrrolo[1,2-a]azocin-6-yl)carbamoyl)benzo[b]thiophen-5-yl)methyl)phosphonic acid], the IC50 was greater than 3000 nM on pSTAT3 (setting [1]), less than 100 nM on STAT3 and 3000 to 30000 nM against STAT6.

In the case of `Cn1c(=O)n(C2CCC(=O)NC2=O)c2ccc(C#CCCC3CCN(c4ccncc4C4CN(C(=O)[C@@H]5CC[C@@H]6CCC[C@H](NC(=O)c7cc8cc(C(F)(F)P(=O)(O)O)ccc8s7)C(=O)N65)C4)CC3)cc21` (stereo partly drawn) [Compound 34, ((2-(((3S,6S,9aS)-3-(3-(4-(4-(4-(1-(2,6-dioxopiperidin-3-yl)-3-methyl-2-oxo-2,3-dihydro-1H-benzo[d]imidazol-5-yl)but-3-yn-1-yl)piperidin-1-yl)pyridin-3-yl)azetidine-1-carbonyl)-5-oxooctahydro-1H-pyrrolo[1,2-a]azepin-6-yl)carbamoyl)benzo[b]thiophen-5-yl)difluoromethyl)phosphonic acid], the IC50 is 100 to 1000 nM on pSTAT3 (setting [2]), less than 100 nM against STAT3 and 300 to 3000 nM against STAT6.

`Cn1c(=O)n(C2CCC(=O)NC2=O)c2ccc(C#CCCC3CCN(c4ccncc4C4CN(C(=O)[C@@H]5CC[C@@H]6CCC[C@H](NC(=O)c7cc8cc(C(F)P(=O)(O)O)ccc8s7)C(=O)N65)C4)CC3)cc21` (stereo partly drawn) [Compound 36, ((2-(((3S,6S,9aS)-3-(3-(4-(4-(4-(1-(2,6-dioxopiperidin-3-yl)-3-methyl-2-oxo-2,3-dihydro-1H-benzo[d]imidazol-5-yl)but-3-yn-1-yl)piperidin-1-yl)pyridin-3-yl)azetidine-1-carbonyl)-5-oxooctahydro-1H-pyrrolo[1,2-a]azepin-6-yl)carbamoyl)benzo[b]thiophen-5-yl)fluoromethyl)phosphonic acid]: the IC50 is 100 to 1000 nM on pSTAT3 (setting [2]), less than 100 nM on STAT3 and greater than 30000 nM at STAT6.

Consider `Cn1c(=O)n(C2CCC(=O)NC2=O)c2ccc(C#CCCC3CCN(c4ccncc4C4CN(C(=O)[C@@H]5CC[C@@H]6CCC[C@H](NC(=O)c7cc8cc([C@H](F)P(=O)(O)O)ccc8s7)C(=O)N65)C4)CC3)cc21` (stereo partly drawn) [Compound 37, ((1R)-(2-(((3S,6S,9aS)-3-(3-(4-(4-(4-(1-(2,6-dioxopiperidin-3-yl)-3-methyl-2-oxo-2,3-dihydro-1H-benzo[d]imidazol-5-yl)but-3-yn-1-yl)piperidin-1-yl)pyridin-3-yl)azetidine-1-carbonyl)-5-oxooctahydro-1H-pyrrolo[1,2-a]azepin-6-yl)carbamoyl)benzo[b]thiophen-5-yl)fluoromethyl)phosphonic acid], for which the IC50 on pSTAT3 (setting [2]) is 100 to 1000 nM; at STAT3 it was less than 100 nM; against STAT6, 3000 to 30000 nM.
